From article PMC11493442, “Sensory-Motor Neuropathy in Mfn2 T105M Knock-in Mice and Its Reversal by a Novel Piperine-Derived Mitofusin Activator” (The Journal of Pharmacology and Experimental Therapeutics, 2024)
Like-named read-outs stand apart in the source and are kept apart here. Values belong to the molecule of their own block, whether it stands above or below them.

How the values were obtained:
[1] = ref Dang et al., cited from earlier work
[2] = p.o. 50 mg/kg, ref Dang et al., cited from earlier work
[3] = ref Dang et al., 2021 (cpd 5b); cited from earlier work
[4] = test system: Mfn2 null MEF cells; experiment: Mitochondrial elongation (fusogenicity, mitochondrial aspect ratio) in Mfn2 null MEFs; format: cell-based, mouse
Protocol: Mitochondrial polarization based on tetramethyl rhodamine ester fluorescence and fusogenicity based on an increase in mitochondrial aspect ratio were measured in static confocal images of live cells using methods that we have extensively validated ([Franco et al., 2016], [2020]; [Rocha et al., 2018]; [Zhang et al., 2022]). As necessary, red, green, and blue brightness, or rarely contrast, were adjusted in individual confocal images prior to merging to enhance clarity. All adjustments were performed across the entire image.
Mitochondrial elongation was assessed in Mfn2 null MEF cells after treatment with compounds at concentrations ranging from 0.5 nM–10 μM in DMSO for 14 h. Mitochondria were stained with MitoTracker Orange, and nuclei were costained with Hoechst before confocal microscope imaging; at least three independent experiments were performed. Mitochondrial aspect ratio (length/width) of at least 10 cells was measured for each experiment using National Institutes of Health ImageJ. […] Concentration-response curves were generated using a sigmoidal model in Prism 8 software. EC50 and Emax values and their variances were calculated from interpolated data of all replicate experiments in a series.

[5] = test system: Mfn2 T105M KI DRG neurons; experiment: Mitochondrial motility in DRG neurons from Mfn2 T105M KI mice; format: cell-based, mouse; settings: 100 nM for 48 hours
Protocol: DRG neurons were isolated from ∼8-week-old Mfn2 T105M motor neuron transgenic mice, Mfn2 T105M KI mice, or Mfn1 fl/fl/Mfn2 fl/fl mice and cultured as described ([Dang et al., 2023]).
(§1) Mitochondrial motility in neuronal processes of cultured reprogrammed human motor neurons ([Abernathy et al., 2017]; [Dang et al., 2023]), mouse DRG neurons transduced with adeno-Mito-DS-Red2, or axons of ex vivo mouse sciatic nerves stained with tetramethyl rhodamine ester was measured using time-lapse confocal microscopy on a Nikon Eclipse Ti2 confocal microscope as described ([Franco et al., 2016], [2020]; [Rocha et al., 2018]). Mouse DRG neurons and reprogrammed human CMT2A motor neurons were transduced with adeno-Mito-DS-Red2 to visualize mitochondria; ex vivo sciatic nerve mitochondria were labeled with tetramethyl rhodamine ester (200 nM for 30 minutes at 37° C). Time-lapse imaging was carried out using confocal microscopy on a Nikon Eclipse Ti2 confocal microscope with 1 frame captured every 5 seconds for 180 frames (15 minutes). Kymographs and quantitative data were generated using the ImageJ plug-in: Velocity_Measurement_Tool.

[6] = Enterohepatic recirculation study: oral PK without and with activated charcoal; format: in vivo, mouse; settings: mice; for AUC(0-t) / half-life: mouse, plasma, po, 5 mg/kg; for half-life: read-out: Plasma t1/2 (converted)
Protocol: Enterohepatic recirculation (EHR) of 8015-P2 was tested by fasting mice overnight prior to administration of the compound (5 mg/kg) by oral gavage. 1 hour later, activated charcoal (2 g/kg) was administered by oral gavage to half of the mice; all mice were fed 2 hours after 8015-P2 dosing to induce gall bladder emptying. […] Areas under the concentration curves were calculated from the raw data; plasma half-times were estimated by linear regression of the second, slower elimination phase.

[7] = test system: Mfn2 T105M KI mouse sciatic nerve axons; experiment: Ex vivo mitochondrial motility in sciatic nerve axons after oral dosing; settings: 100 mg/kg by oral gavage
Protocol: as §1

[8] = test system: Mfn2 T105M knock-in mice; experiment: CMT2A phenotype reversal in Mfn2 T105M knock-in mice; format: in vivo, mouse
Protocol: The creation of mice with human CMT2A mutations MFN2 T105M and M376V CRISPR-engineered into the mouse Mfn2 gene has been reported, as was absence of a cardiac phenotype ([Franco et al., 2023]). Neuromuscular phenotyping was performed for the current studies (vide infra). Results of male and female mice were combined as there were no observed sex differences.
Mfn2 T105M knock-in mice underwent evaluation at 10-week intervals to establish basal phenotype progression. 8015 or 8015-P2 treatment studies were performed after final baseline evaluations at 50 weeks of age. 8015 (transgenic MFN2 T105M model) or 8015-P2 (Mfn2 T105M knock-in model) were administered at doses of 50 mg/kg by oral gave once daily in the morning. Repeat phenotyping was performed after 4 and 8 weeks of treatment (transgenic model) or 6 weeks of treatment (knock-in model), after which the mice were killed by anesthesia overdose and tissue specimens obtained for histologic and ultrastructural studies, as described ([Franco et al., 2020]).
Rotarod studies were performed on mice initially familiarized and trained on the Rotarod (Ugo Basile, Gemonio, VA, Italy;# 47650) at a speed of 5 rpm. For evaluation, the initial speed of 5 rpm accelerated to 40 rpm over 120 seconds and then maintained 40 rpm for a maximum of 180 seconds. For each trial, five tests were performed with at least 5 minutes rest between each test. No trends were observed from test 1 to test 5. In total, three trials were performed over sequential days to account for variabilities of the Rotarod test and between days. For each mouse, the latency (time to falling off) of replicate tests for each trial day were averaged, and results of the three independent trials were averaged to obtain a result for that condition (i.e., age, genotype, and/or drug treatment).
Neuroelectrophysiologic recordings of hindlimb compound muscle action potentials (CMAP) were performed with a Viasys Healthcare Nicolet Biomedical instrument (Middleton, WI, USA Cat:# OL060954) using Viking Quest version 11.2 software. Nerve stimulation used 3.9 mV pulses of 0.002 milliseconds duration administered through a needle electrode placed at the proximal sciatic nerve through a posterior lumbar approach. Muscle depolarization was monitored using a loop electrode placed around the mid distal hindlimb, corresponding to the greatest girth of the tibialis and gastrocnemius muscles.
An inverted grid suspension test was used to assess grip strength and coordination. Mice were placed on a grid, which was slowly inverted no higher than three feet above a padded surface; the time to falling off (latency) was recorded up to a maximum of 500 seconds. Each mouse underwent at least three independent studies on different days, and the longest latency time was used ([Aartsma-Rus and van Putten, 2014]). Obese mice (>150% of mean weight for that condition) were preemptively excluded.
Mechanical sensitivity was measured using the von Frey test ([Martinov et al., 2013]). Mice were placed in a plexiglass chamber with a mesh grid floor and allowed to accommodate for at least 20 minutes or until exploratory behavior had ceased. The response to mechanical stimulation of hind paws used IITC Supertips filaments and an electronic von Frey anesthesiometer (IITC Life Science, Inc. Woodland Hills CA, USA). Filaments were applied to the footpads with a gradual increase in pressure until paw withdrawal was evoked; the maximum applied force was recorded. Paws of the left and right foot were alternately measured, with at least six measurements taken per animal and the results averaged for each mouse.
Confocal imaging of gastrocnemius myocyte cross-sectional area (wheat germ agglutinin staining) and synapse density (α-bungarotoxin staining) was performed as described ([Franco et al., 2020]). […]

[9] = Plasma PK in rats; format: in vivo, rat; settings: oral administration
Protocol: Routine in vitro pharmacokinetic (PK) profiling of 8015 and its enantiomers (8015-P1 and 8015-P2) was performed at WuXi Apptec Co., Ltd. (Shanghai, China) using standard methods as described ([Dang et al., 2020], [2021]). In vivo PK profiling was performed by Frontage Laboratories (Exton PA, USA). The vehicle used for intravenous and oral PK studies was 12% sulfobutylether-β-cyclodextrin (SBE-β-CD; CyDex Pharmaceutical Inc., Lenexa KS, USA) in sterile water.

[10] = test system: mitofusins; parameters: method as in Zhang et al., 2022; settings: ref Zhang et al., 2022; cited from earlier work
[11] = parameters: method as in earlier work; settings: ref Piyachaturawat et al., 1983, Bhardwaj et al., 2002, Lee et al., 2005, McNamara et al.; cited from earlier work
[12] = 5 mg/kg oral, with vs. without charcoal
[13] = 5 mg/kg oral, activated charcoal by gavage 1 hour after dosing
[14] = 50 mg/kg once daily by oral gavage for 6 weeks

SMILES: O=C(N[C@H]1CC[C@H](O)CC1)C1CC1CCCc1ccccc1 (stereo partly drawn) [CPR1-B, N-(trans-4-hydroxycyclohexyl)-2-(3-phenylpropyl)cyclopropane-1-carboxamide]
calc logP ([1]; 2021 (cpd 5b)): 3.09 | Bioavailability ([2]; 2021 (cpd 5b)): 59% | Aqueous solubility (pH 7.4) [3]: <10 uM

EC50 ([4]; Mus musculus, MEF, 95% confidence limits 439 - 863PM, n = 4, read-out: EC50 as a fusogenic factor (fusion of Mfn2-deficient mitochondria)): 0.623 nM | Mitochondrial motility in DRG neuronal processes [5]: corrected | Decrease of AUClast by charcoal [6, 12]: 17% | Decrease of t1/2 by charcoal [6, 12]: 36% | Enterohepatic recirculation ([6]; oral): undergoes enterohepatic recirculation | AUC(0-t) [6, 13]: 739 ng·h/mL | half-life [6, 13]: 72.6 min | AUC(0-t) ([6]; 5 mg/kg oral, without charcoal): 887 ng·h/mL | half-life ([6]; 5 mg/kg oral, without charcoal): 113 min | Waxing and waning of plasma levels [9]: not observed
SMILES: O=C(NC1CC1CCCCc1ccccc1)C1CCC(O)CC1 (stereo not shown) [Compound 8015-P2]
Mitofusin activator potency (in words) [4]: subnanomolar potency | Comparative fusogenic potency of the two 8015 isomers ([4]; Mfn2-deficient mitochondria, n = 4 each): markedly more potent and effective than 8015-P1 | Fold greater fusogenic potency versus comparators ([4]; versus trans-MiM111 or CPR1-B / previously described mitofusin activators): ~10 fold | Mitochondrial motility in sciatic nerve axons, ex vivo [7]: corrected mitochondrial dysmotility | Motor neuron functional metrics (Rotarod latency, inverted grasp) [8, 14]: normalized | Neuroelectrophysiological abnormality (CMAP amplitude) [8, 14]: normalized | Sensory neuron metric (von Frey foot pad mechanical sensitivity) [8, 14]: normalized | Gastrocnemius myocyte cross-sectional area ([8]; 6 weeks of administration): reversed | Neuromuscular synapse density ([8]; 6 weeks of administration): reversed | Proportion of tibialis nerve neurons with small axonal areas (lowest quartile) ([8]; 6 weeks of administration): reversed

SMILES: O=C(NC1CC1CCCc1ccccc1)[C@H]1CC[C@H](O)CC1 (stereo partly shown) [Cpd 10]
Mitofusin activator activity [10]: functionally inactive

SMILES: O=C(/C=C/C=C/c1ccc2c(c1)OCO2)N1CCCCC1 [piperine]
Cytotoxicity [11]: can be cytotoxic at higher concentrations | Mitofusin activation potency (in words) [10]: approximately the same potency as phenylhexanamide compounds

SMILES: O=C(CCCCCc1ccccc1)N[C@H]1CC[C@H](O)CC1 [trans-MiM111, N-(trans-4-hydroxycyclohexyl)-6-phenylhexanamide]
calc logP ([1]; 2020 (cpd 13b)): 3.22 | Bioavailability ([2]; 2020 (cpd 13b)): 61%
